Each compound was assayed on ZIKV (assay: ZIKV reporter virus-based antiviral screening on Huh7 cells). Conditions: Zika virus, Huh-7, 48 h, Huh7 cells infected with recombinant luciferase reporter ZIKV (MOI about 0.1), luciferase signal.
Assay type: cell-based, Zika virus
How it was run: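 Huh7 cells in 2% FBS assay medium infected at MOI about 0.1 with Renilla or Nano luciferase ZIKV premixed with nine-point compound dilutions, 48 hrs at 37° C. Luciferase signal normalized to DMSO controls as 100%; viability optionally by CellTiter-Glo with Rlu virus.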
With `COC(=O)N[C@H](C(=O)N1[C@H](c2nc(Cl)c(-c3cc4c5c(c3)OCc3cc(-c6[nH]c([C@@H]7C[C@@H]8C[C@@H]8N7C(=O)[C@@H](NC(=O)OC)C(C)(C)C(F)(F)F)nc6Cl)cc(c3-5)OC4)[nH]2)C[C@@H]2C[C@@H]21)C(C)(C)C(F)(F)F` [Compound 12, dimethyl ((2S,2′S)-((1S,1′S,3S,3′S,5S,5′S)-((5,10-dihydrochromeno[5,4,3-cde]chromene-2,7-diyl)bis(4-chloro-1H-imidazole-5,2-diyl))bis(2-azabicyclo[3.1.0]hexane-3,2-diyl))bis(4,4,4-trifluoro-3,3-dimethyl-1-oxobutane-1,2-diyl))dicarbamate] the EC50 was 11.9 nM.
`COC(=O)N[C@H](C(=O)N1CCC[C@H]1c1nc(C2CC2)c(-c2cc3c4c(c2)OCc2cc(-c5[nH]c([C@@H]6CCCN6C(=O)[C@@H](NC(=O)OC)C(C)C)nc5C5CC5)cc(c2-4)OC3)[nH]1)C(C)C` [Compound 17, dimethyl ((2S,2′S)-((2S,2′S)-((5,10-dihydrochromeno[5,4,3-cde]chromene-2,7-diyl)bis(4-cyclopropyl-1H-imidazole-5,2-diyl))bis(pyrrolidine-2,1-diyl))bis(3-methyl-1-oxobutane-1,2-diyl))dicarbamate] showed an EC50 of 74.5 nM.
Work on `COC(=O)N[C@H](C(=O)N1CC(F)(F)C[C@H]1c1nc(Cl)c(-c2cc3c4c(c2)OCc2cc(-c5[nH]c([C@@H]6CC(F)(F)CN6C(=O)[C@@H](NC(=O)OC)C(C)C)nc5Cl)cc(c2-4)OC3)[nH]1)C(C)C` [Compound 56, dimethyl ((2S,2′S)-((5S,5′S)-((5,10-dihydrochromeno[5,4,3-cde]chromene-2,7-diyl)bis(4-chloro-1H-imidazole-5,2-diyl))bis(3,3-difluoropyrrolidine-5,1-diyl))bis(3-methyl-1-oxobutane-1,2-diyl))dicarbamate] yielded an EC50 of 3.8 nM.
For `CC[C@@H](C)[C@H](NC(=O)OC)C(=O)N1CC2(CC2)C[C@H]1c1nc(Cl)c(-c2cc3c4c(c2)OCc2cc(-c5[nH]c([C@@H]6CC7(CC7)CN6C(=O)[C@@H](NC(=O)OC)[C@H](C)CC)nc5C(C)C)cc(c2-4)OC3)[nH]1` [Compound 83, methyl ((2S,3R)-1-((S)-6-(5-(7-(4-chloro-2-((S)-5-((methoxycarbonyl)-L-alloisoleucyl)-5-azaspiro[2.4]heptan-6-yl)-1H-imidazol-5-yl)-5,10-dihydrochromeno[5,4,3-cde]chromen-2-yl)-4-isopropyl-1H-imidazol-2-yl)-5-azaspiro[2.4]heptan-5-yl)-3-methyl-1-oxopentan-2-yl)carbamate], the EC50 was 2.4 nM.
`COC(=O)N[C@H](C(=O)N1CCC[C@H]1c1nc(C(C)(C)C)c(-c2cc3c4c(c2)OCc2cc(-c5[nH]c([C@@H]6CCCN6C(=O)[C@@H](NC(=O)OC)C(C)C)nc5C(C)(C)C)cc(c2-4)OC3)[nH]1)C(C)C` [Compound 76, Dimethyl ((2S,2′S)-((2S,2′S)-((5,10-dihydrochromeno[5,4,3-cde]chromene-2,7-diyl)bis(4-(tert-butyl)-1H-imidazole-5,2-diyl))bis(pyrrolidine-2,1-diyl))bis(3-methyl-1-oxobutane-1,2-diyl))dicarbamate] was tested, and the EC50 was 496 nM.
In the case of `COC(=O)N[C@H](C(=O)N1CCCC[C@H]1c1nc(Cl)c(-c2cc3c4c(c2)OCc2cc(-c5[nH]c([C@@H]6CCCCN6C(=O)[C@@H](NC(=O)OC)C(C)C)nc5Cl)cc(c2-4)OC3)[nH]1)C(C)C` [Compound 13, dimethyl ((2S,2′S)-((2S,2′S)-((5,10-dihydrochromeno[5,4,3-cde]chromene-2,7-diyl)bis(4-chloro-1H-imidazole-5,2-diyl))bis(piperidine-2,1-diyl))bis(3-methyl-1-oxobutane-1,2-diyl))dicarbamate], the EC50 is reported as 4.5 nM.
`COC(=O)N[C@H](C(=O)N1CC(F)(F)C[C@H]1c1nc(Cl)c(-c2cc3c4c(c2)OCc2cc(-c5[nH]c([C@@H]6CC(F)(F)CN6C(=O)[C@@H](NC(=O)OC)C(C)(C)C(F)(F)F)nc5Cl)cc(c2-4)OC3)[nH]1)C(C)(C)C(F)(F)F` [Compound 58, dimethyl ((2S,2′S)-((5S,5′S)-((5,10-dihydrochromeno[5,4,3-cde]chromene-2,7-diyl)bis(4-chloro-1H-imidazole-5,2-diyl))bis(3,3-difluoropyrrolidine-5,1-diyl))bis(4,4,4-trifluoro-3,3-dimethyl-1-oxobutane-1,2-diyl))dicarbamate] gave an EC50 of 11 nM.
With `CC(C)[C@H](NC(=O)C1CC1)C(=O)N1CCC[C@H]1c1nc(Cl)c(-c2cc3c4c(c2)OCc2cc(-c5[nH]c([C@@H]6CCCN6C(=O)[C@@H](NC(=O)C6CC6)C(C)C)nc5Cl)cc(c2-4)OC3)[nH]1` [Compound 25, N,N′-((2S,2′S)-((2S,2′S)-((5,10-dihydrochromeno[5,4,3-cde]chromene-2,7-diyl)bis(4-chloro-1H-imidazole-5,2-diyl))bis(pyrrolidine-2,1-diyl))bis(3-methyl-1-oxobutane-1,2-diyl))dicyclopropanecarboxamide] the EC50 was 21.9 nM.
Work on `CC[C@H](C)[C@H](NC(=O)OC)C(=O)N1C[C@@H](C)C[C@H]1c1ncc(-c2cc3c4c(c2)OCc2cc(-c5[nH]c([C@@H]6C[C@H](C)CN6C(=O)[C@@H](NC(=O)OC)[C@@H](C)CC)nc5C(C)C)cc(c2-4)OC3)[nH]1` [Compound 70, methyl ((2S,3S)-1-((2S,4S)-2-(4-isopropyl-5-(7-(2-((2S,4S)-1-((methoxycarbonyl)-L-isoleucyl)-4-methylpyrrolidin-2-yl)-1H-imidazol-5-yl)-5,10-dihydrochromeno[5,4,3-cde]chromen-2-yl)-1H-imidazol-2-yl)-4-methylpyrrolidin-1-yl)-3-methyl-1-oxopentan-2-yl)carbamate] yielded an EC50 of 17.4 nM.
For `CC[C@@H](C)[C@H](NC(=O)OC)C(=O)N1[C@@H](C)CC[C@H]1c1nc(Cl)c(-c2cc3c4c(c2)OCc2cc(-c5[nH]c([C@@H]6CC[C@H](C)N6C(=O)[C@@H](NC(=O)OC)[C@H](C)CC)nc5Cl)cc(c2-4)OC3)[nH]1` [Compound 33, dimethyl ((2S,2′S,3R,3′R)-((2S,2′S,5S,5′S)-((5,10-dihydrochromeno[5,4,3-cde]chromene-2,7-diyl)bis(4-chloro-1H-imidazole-5,2-diyl))bis(2-methylpyrrolidine-5,1-diyl))bis(3-methyl-1-oxopentane-1,2-diyl))dicarbamate], the EC50 was 0.9 nM.
For `COC(=O)N[C@H](C(=O)N1C[C@@H](OC)C[C@H]1c1nc(Cl)c(-c2cc3c4c(c2)OCc2cc(-c5[nH]c([C@@H]6C[C@H](OC)CN6C(=O)[C@@H](NC(=O)OC)C(C)(C)C(F)(F)F)nc5Cl)cc(c2-4)OC3)[nH]1)C(C)(C)C(F)(F)F` [Compound 6, dimethyl ((2S,2′S)-((3S,3′S,5S,5′S)-((5,10-dihydrochromeno[5,4,3-cde]chromene-2,7-diyl)bis(4-chloro-1H-imidazole-5,2-diyl))bis(3-methoxypyrrolidine-5,1-diyl))bis(4,4,4-trifluoro-3,3-dimethyl-1-oxobutane-1,2-diyl))dicarbamate], the EC50 was 4.9 nM.
For `COC(=O)N[C@H](C(=O)N1C[C@@H](C)C[C@H]1c1nc(C(C)C)c(-c2cc3c4c(c2)OCc2cc(-c5[nH]c([C@@H]6C[C@H](C)CN6C(=O)[C@@H](NC(=O)OC)C(C)C)nc5C(C)C)cc(c2-4)OC3)[nH]1)C(C)C` [Compound 72, dimethyl ((2S,2′S)-((3S,3′S,5S,5′S)-((5,10-dihydrochromeno[5,4,3-cde]chromene-2,7-diyl)bis(4-isopropyl-1H-imidazole-5,2-diyl))bis(3-methylpyrrolidine-5,1-diyl))bis(3-methyl-1-oxobutane-1,2-diyl))dicarbamate], the EC50 was 11.8 nM.
`COC(=O)N[C@@H](C(=O)N1CC2(CC2)C[C@H]1c1nc(Cl)c(-c2cc3c4c(c2)OCc2cc(-c5[nH]c([C@@H]6CC7(CC7)CN6C(=O)[C@H](NC(=O)OC)C(C)C)nc5C(C)C)cc(c2-4)OC3)[nH]1)C(C)C` [Compound 81, methyl ((R)-1-((S)-6-(5-(7-(4-chloro-2-((S)-5-((methoxycarbonyl)-D-valyl)-5-azaspiro[2.4]heptan-6-yl)-1H-imidazol-5-yl)-5,10-dihydrochromeno[5,4,3-cde]chromen-2-yl)-4-isopropyl-1H-imidazol-2-yl)-5-azaspiro[2.4]heptan-5-yl)-3-methyl-1-oxobutan-2-yl)carbamate] was tested, and the EC50 was > 1000 nM.
`COC(=O)N[C@H](C(=O)N1[C@H](C)CC[C@H]1c1nc(Cl)c(-c2cc3c4c(c2)OCc2cc(-c5[nH]c([C@@H]6CC[C@@H](C)N6C(=O)[C@@H](NC(=O)OC)C(C)(C)C(F)(F)F)nc5Cl)cc(c2-4)OC3)[nH]1)C(C)(C)C(F)(F)F` [Compound 65, dimethyl ((2S,2′S)-((2R,2′R,5S,5′S)-((5,10-dihydrochromeno[5,4,3-cde]chromene-2,7-diyl)bis(4-chloro-1H-imidazole-5,2-diyl))bis(2-methylpyrrolidine-5,1-diyl))bis(4,4,4-trifluoro-3,3-dimethyl-1-oxobutane-1,2-diyl))dicarbamate] gave an EC50 of 71.7 nM.
With `COC(=O)N[C@H](C(=O)N1[C@@H](C)CC[C@H]1c1ncc(-c2cc3c4c(c2)OCc2cc(-c5[nH]c([C@@H]6CC[C@H](C)N6C(=O)[C@@H](NC(=O)OC)C(C)C)nc5Cl)cc(c2-4)OC3)[nH]1)C(C)C` [Compound 75, methyl ((S)-1-((2S,5S)-2-(4-chloro-5-(7-(2-((2S,5S)-1-((methoxycarbonyl)-L-valyl)-5-methylpyrrolidin-2-yl)-1H-imidazol-5-yl)-5,10-dihydrochromeno[5,4,3-cde]chromen-2-yl)-1H-imidazol-2-yl)-5-methylpyrrolidin-1-yl)-3-methyl-1-oxobutan-2-yl)carbamate] the EC50 was 9.6 nM.
In the case of `COC(=O)N[C@H](C(=O)N1CC2(CC2)C[C@H]1c1nc(Cl)c(-c2cc3c4c(c2)OCc2cc(-c5[nH]c([C@@H]6CC7(CC7)CN6C(=O)[C@@H](NC(=O)OC)C(C)C)nc5Cl)cc(c2-4)OC3)[nH]1)C(C)C` [Compound 59, dimethyl ((2S,2′S)-((6S,6′S)-((5,10-dihydrochromeno[5,4,3-cde]chromene-2,7-diyl)bis(4-chloro-1H-imidazole-5,2-diyl))bis(5-azaspiro[2.4]heptane-6,5-diyl))bis(3-methyl-1-oxobutane-1,2-diyl))dicarbamate], the EC50 is reported as 1.5 nM.

Source: US12497408B2, “Tetracyclic compounds and methods for the treatment of Zika virus infection” (priority 2021, dated 2025)
